The target in assay [1] is ASCT2. The note with it: read-out: apparent affinity; inhibitor of ASCT2; cited from earlier work.
Assay [2] relates to ASCT2. The note with it: cited from earlier work.
In assay [3] the target is T1, ASCT2 (Rattus norvegicus, UniProt D3ZJ25).
T1 sequence (D3ZJ25 1-555): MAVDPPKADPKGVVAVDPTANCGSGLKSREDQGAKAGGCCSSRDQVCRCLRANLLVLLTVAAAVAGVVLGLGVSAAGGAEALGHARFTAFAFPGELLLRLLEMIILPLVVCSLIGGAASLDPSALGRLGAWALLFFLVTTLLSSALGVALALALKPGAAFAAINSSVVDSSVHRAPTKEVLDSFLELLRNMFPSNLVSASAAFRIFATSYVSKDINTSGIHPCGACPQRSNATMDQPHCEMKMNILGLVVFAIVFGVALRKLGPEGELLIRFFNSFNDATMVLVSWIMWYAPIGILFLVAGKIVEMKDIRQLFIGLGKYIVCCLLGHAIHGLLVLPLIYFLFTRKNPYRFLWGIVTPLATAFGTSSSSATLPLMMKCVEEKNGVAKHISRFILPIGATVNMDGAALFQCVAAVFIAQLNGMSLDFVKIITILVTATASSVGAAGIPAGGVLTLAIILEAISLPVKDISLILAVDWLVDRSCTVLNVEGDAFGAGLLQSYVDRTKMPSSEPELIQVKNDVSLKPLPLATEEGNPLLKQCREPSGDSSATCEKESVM
The experiment in a line: ASCT2-mediated 3H-glutamine uptake in C6 cells. Format: cell-based.

The values that follow come from paper PMC4727990 (Bioorganic & medicinal chemistry letters, 2015).

As for `N[C@@H](COC(=O)c1ccc(-c2ccccc2)cc1)C(=O)O` [Compound 3, O-(4-phenylbenzoyl)-L-serine], on ASCT2 [1], the Ki is 30 µM.

With `N[C@@H](CCC(=O)Nc1ccc([N+](=O)[O-])cc1)C(=O)O` [Compound 1, L-γ-glutamyl-p-nitroanilide], the “potency against ASCT2” value in the assay with ASCT2 [2] is recorded as “modest potency in the low millimolar range”.

As to “N-(2-(morpholinomethyl)phenyl)-L-glutamine [Compound 2]”, the “improvement of activity against ASCT2 compared to GPNA” value in the assay with ASCT2 [2] was “three-fold improved activity”.

The IC50 is the midpoint of a concentration-inhibition curve. In turn, `Cc1cccc(COc2ccccc2CN(CC[C@H](N)C(=O)O)Cc2ccccc2OCc2cccc(C)c2)c1` [Compound 17] came in with an IC50 against ASCT2 [3] of 9 µM.
